Data reported in US9012626B2, “Rebaudioside a composition and method for purifying rebaudioside a” (The Coca-Cola Company, priority 2006, dated 2015).

Test: Rate of dissolution in H2O at 25° C.
Format: physicochemical

| SMILES | Rate of dissolution in H2O at 25° C. (grade in words) | Rate of dissolution in H2O at 25° C. (amount dissolved) (in 60 minutes) | Rate of dissolution in H2O at 25° C. (amount dissolved) (in 5 minutes) | Rate of dissolution compared to the polymorphic forms (Forms 1, 2, or 3) |
| --- | --- | --- | --- | --- |
| C=C1C[C@@]23CC[C@H]4[C@@](C)(CCC[C@@]4(C)C(=O)O[C@@H]4O[C@H](CO)[C@@H](O)[C@H](O)[C@H]4O)[C@@H]2CC[C@]1(O[C@@H]1O[C@H](CO)[C@@H](O)[C@H](O[C@@H]2O[C@H](CO)[C@@H](O)[C@H](O)[C@H]2O)[C@H]1O[C@@H]1O[C@H](CO)[C@@H](O)[C@H](O)[C@H]1O)C3 [Form 1, rebaudioside A] | Very low | (<0.2% in 60 |  |  |
| C=C1C[C@@]23CC[C@H]4[C@@](C)(CCC[C@@]4(C)C(=O)O[C@@H]4O[C@H](CO)[C@@H](O)[C@H](O)[C@H]4O)[C@@H]2CC[C@]1(O[C@@H]1O[C@H](CO)[C@@H](O)[C@H](O[C@@H]2O[C@H](CO)[C@@H](O)[C@H](O)[C@H]2O)[C@H]1O[C@@H]1O[C@H](CO)[C@@H](O)[C@H](O)[C@H]1O)C3 [Form 3, rebaudioside A] | High |  | (>30% in 5 |  |
| C=C1C[C@@]23CC[C@H]4[C@@](C)(CCC[C@@]4(C)C(=O)O[C@@H]4O[C@H](CO)[C@@H](O)[C@H](O)[C@H]4O)[C@@H]2CC[C@]1(O[C@@H]1O[C@H](CO)[C@@H](O)[C@H](O[C@@H]2O[C@H](CO)[C@@H](O)[C@H](O)[C@H]2O)[C@H]1O[C@@H]1O[C@H](CO)[C@@H](O)[C@H](O)[C@H]1O)C3 [Form 2, rebaudioside A] | Intermediate |  | (<30% in 5 |  |
| C=C1C[C@@]23CC[C@H]4[C@@](C)(CCC[C@@]4(C)C(=O)O[C@@H]4O[C@H](CO)[C@@H](O)[C@H](O)[C@H]4O)[C@@H]2CC[C@]1(O[C@@H]1O[C@H](CO)[C@@H](O)[C@H](O[C@@H]2O[C@H](CO)[C@@H](O)[C@H](O)[C@H]2O)[C@H]1O[C@@H]1O[C@H](CO)[C@@H](O)[C@H](O)[C@H]1O)C3 [Form 4, rebaudioside A] | High |  | (>35% in 5 | improved rate of dissolution |
